Data reported in US8420657B2 (Novartis AG, priority 2008, dated 2013).
Where two headings read alike, the source gives them in different places.

Tests used:
cKit = molecular target: T1, cKit (Homo sapiens, UniProt P10721); experiment: cKit LanthaScreen TR-FRET kinase phosphorylation assay; assay type: biochemical; details: recombinant kinase domain
T1 construct: using the recombinant domains of cMet, cKit, ALK and PDGFRalpha kinases
Method: (§1) The compounds are assayed in an antibody based kinase phosphorylation assay using the recombinant domains of cMet, cKit, ALK and PDGFRalpha kinases and a generic phospho-tyrosine peptide substrate. LanthaScreen™ is the detection of Time-Resolved Fluorescence Resonance Energy Transfer (TR-FRET) using lanthanide chelates to measure interactions between various binding partners. In a TR-FRET kinase assay, a long-lifetime lanthanide donor species is conjugated to an antibody that specifically binds to a phosphorylated product of a kinase reaction that is labeled with a suitable acceptor fluorophore. This antibody-mediated interaction brings the lanthanide donor and the acceptor into proximity such that resonance energy transfer can take place, resulting in a detectible increase in FRET. The LanthaScreen is run at ambient temperature and terminated by the addition of stop solution, followed by Tb-labeled P-20 antibody. After incubating in the dark, the plates are transferred to a fluorescence reader for counting. The effect of compound on the enzymatic activity is in all assays obtained from the linear progress curves and determined from one reading (end point measurement).

ALK = molecular target: T2, ALK (Homo sapiens, UniProt Q9UM73); experiment: ALK LanthaScreen TR-FRET kinase phosphorylation assay; assay type: biochemical; details: recombinant kinase domain
T2 construct: using the recombinant domains of cMet, cKit, ALK and PDGFRalpha kinases
Method: as §1

cMet = molecular target: T3, cMet (Homo sapiens, UniProt P08581); experiment: cMet LanthaScreen TR-FRET kinase phosphorylation assay; assay type: biochemical; details: recombinant kinase domain
T3 construct: using the recombinant domains of cMet, cKit, ALK and PDGFRalpha kinases
Method: as §1

PDGFRalpha = molecular target: T4, PDGFRalpha (Homo sapiens, UniProt P16234); experiment: PDGFRalpha LanthaScreen TR-FRET kinase phosphorylation assay; assay type: biochemical; details: recombinant kinase domain, read-out: PDGFRa/IC50
T4 construct: using the recombinant domains of cMet, cKit, ALK and PDGFRalpha kinases
Method: as §1

GST-JAK2(808-1132) = molecular target: T5, GST-JAK2(808-1132) (Homo sapiens, UniProt O60674); experiment: JAK2 kinase assay (Caliper mobility shift, LabChip 3000); assay type: biochemical
T5 construct: GST-JAK2(808-1132); purchased Invitrogen (Carlsbad, USA) #4288
Outline: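 Recombinant GST-JAK2(808-1132) kinase domain with FITC-labelled JAK3tide peptide substrate and ATP; 60 min at 30 °C, EDTA stop. Substrate/product ratio read by microfluidic mobility shift; compounds at 8 final concentrations, 10 to 0.003 μM.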

[1] = system: JAK1/JAK2-dependent nuclear translocation of STAT1-GFP in HT1080 fibrosarcoma cells; experiment: STAT1 nuclear translocation assay (Cellomics), IFN-γ stimulated HT1080 STAT1-GFP cells; assay type: cell-based; details: Homo sapiens, HT-1080, STAT1 translocation pathway
Outline: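 HT1080 cells stably expressing STAT1-GFP, pre-treated 30 min with compound (10 μM–0.003 μM, 0.1% DMSO), then stimulated 2 h with 100 ng/ml IFN-γ, fixed and Hoechst-stained. Nuclear-cytoplasmic GFP differential imaged over ≥1000 cells/well, normalised to unstimulated and DMSO-stimulated wells for IC50.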

[2] = system: JAK2-dependent nuclear translocation of STAT5-GFP in U-2 OS osteosarcoma cells; experiment: STAT5 nuclear translocation assay (Cellomics), rhEpo stimulated U-2 OS STAT5-GFP cells; assay type: cell-based; details: STAT5 translocation pathway
Outline: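 U-2 OS cells stably expressing STAT5a-GFP and EpoR pre-treated with compound (final 10 μM to 0.003 μM, 0.1% DMSO) for 30 min at 37° C., then stimulated 1 h with 5 U/ml rhEpo. Nuclear-cytoplasmic GFP differential quantified by automated imaging (≥1000 cells/well, Hoechst nuclear mask). IC50 from % translocation normalized to untreated and DMSO-stimulated controls.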

T3 sequence (P08581 1078-1345 limits assumed): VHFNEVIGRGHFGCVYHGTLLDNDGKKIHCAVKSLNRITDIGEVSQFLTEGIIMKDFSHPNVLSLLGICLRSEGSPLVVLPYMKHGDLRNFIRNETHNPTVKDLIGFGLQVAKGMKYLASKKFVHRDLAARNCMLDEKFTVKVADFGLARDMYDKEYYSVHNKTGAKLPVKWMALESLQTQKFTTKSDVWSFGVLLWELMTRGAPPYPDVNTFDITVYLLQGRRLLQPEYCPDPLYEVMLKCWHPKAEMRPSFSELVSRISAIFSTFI
T1 sequence (P10721 589-937 limits assumed): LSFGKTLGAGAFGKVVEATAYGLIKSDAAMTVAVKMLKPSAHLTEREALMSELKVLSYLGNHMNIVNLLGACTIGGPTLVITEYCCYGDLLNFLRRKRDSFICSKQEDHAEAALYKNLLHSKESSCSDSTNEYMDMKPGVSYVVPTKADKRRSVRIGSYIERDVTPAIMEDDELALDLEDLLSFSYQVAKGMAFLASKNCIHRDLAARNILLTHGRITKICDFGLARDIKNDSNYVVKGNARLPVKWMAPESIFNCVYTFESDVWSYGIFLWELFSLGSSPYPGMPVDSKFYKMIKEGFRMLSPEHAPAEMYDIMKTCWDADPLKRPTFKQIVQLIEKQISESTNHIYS
T2 sequence (Q9UM73 1116-1392 limits assumed, species assumed): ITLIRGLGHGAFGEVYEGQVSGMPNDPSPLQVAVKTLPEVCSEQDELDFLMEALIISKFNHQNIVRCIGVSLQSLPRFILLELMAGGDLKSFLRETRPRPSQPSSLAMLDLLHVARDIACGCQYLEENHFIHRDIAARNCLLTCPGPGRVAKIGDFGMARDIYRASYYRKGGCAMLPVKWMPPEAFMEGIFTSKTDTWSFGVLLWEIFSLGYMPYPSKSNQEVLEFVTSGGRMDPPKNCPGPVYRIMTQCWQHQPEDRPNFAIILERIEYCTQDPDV
T4 sequence (P16234 593-954 limits assumed, species assumed): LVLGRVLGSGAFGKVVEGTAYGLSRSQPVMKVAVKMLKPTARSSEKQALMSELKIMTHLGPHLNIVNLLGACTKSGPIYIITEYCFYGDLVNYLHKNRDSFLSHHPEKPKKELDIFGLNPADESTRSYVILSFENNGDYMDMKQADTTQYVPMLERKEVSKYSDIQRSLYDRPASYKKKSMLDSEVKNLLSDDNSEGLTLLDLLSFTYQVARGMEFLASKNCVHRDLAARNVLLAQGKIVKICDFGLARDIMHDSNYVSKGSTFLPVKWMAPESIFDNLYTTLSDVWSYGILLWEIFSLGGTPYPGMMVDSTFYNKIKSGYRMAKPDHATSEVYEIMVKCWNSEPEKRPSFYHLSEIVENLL
T5 sequence (O60674 808-1132): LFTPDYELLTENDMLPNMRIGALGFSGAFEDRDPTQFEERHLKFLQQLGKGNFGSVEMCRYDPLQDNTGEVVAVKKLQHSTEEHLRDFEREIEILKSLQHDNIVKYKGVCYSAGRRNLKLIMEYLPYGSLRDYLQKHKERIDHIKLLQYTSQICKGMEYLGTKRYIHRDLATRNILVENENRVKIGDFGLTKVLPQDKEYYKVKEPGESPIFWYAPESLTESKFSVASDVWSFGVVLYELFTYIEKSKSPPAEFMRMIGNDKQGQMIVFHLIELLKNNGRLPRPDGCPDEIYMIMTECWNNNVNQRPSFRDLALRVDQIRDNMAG

Q: Which results are given for `N#Cc1ccc(Nc2ncc3ccn(-c4ccc(C(=O)N5CCOCC5)cc4)c3n2)cn1` [Example 235, 5-{7-[4-(Morpholine-4-carbonyl)-phenyl]-7H-pyrrolo[2,3-d]pyrimidin-2-ylamino}-pyridine-2-carbonitrile]?
A: IC50 (cKit): > 10000 nM; IC50 (ALK): > 10000 nM; IC50 (cMet): > 10000 nM; IC50 (PDGFRalpha): > 10000 nM; IC50 (GST-JAK2(808-1132)): 56 nM; IC50 (GST-JAK2(808-1132); Table 3): 56 nM

Q: For `CN1CCN(c2ccc(Nc3ncc4ccn(-c5ccc(C#N)cc5)c4n3)cn2)CC1` [Example 278, 4-{2-[6-(4-Methyl-piperazin-1-yl)-pyridin-3-ylamino]-pyrrolo[2,3-d]pyrimidin-7-yl}-benzonitrile], which IC50 (cKit) is on record?
A: 1350 nM

Q: And the IC50 (ALK)?
A: > 10000 nM

Q: And the IC50 (cMet)?
A: 1400 nM

Q: What about the IC50 (PDGFRalpha) of the same compound?
A: 2650 nM

Q: And the IC50 (GST-JAK2(808-1132))?
A: 11 nM

Q: And the IC50 (GST-JAK2(808-1132); Table 3)?
A: 11 nM

Q: Which results are given for `C[C@@H]1CN(Cc2c(F)cc(-n3ccc4cnc(Nc5ccc(N6CCN(C)CC6)nc5)nc43)cc2F)C[C@H](C)O1` [Example 447, {7-[4-(cis-2,6-dimethyl-morpholin-4-ylmethyl)-3,5-difluoro-phenyl]-7H-pyrrolo[2,3-d]pyrimidin-2-yl}-[6-(4-methyl-piperazin-1-yl)-pyridin-3-yl]-amine]?
A: IC50 [1]: 105 nM; IC50 (GST-JAK2(808-1132)): 9.6 nM; IC50 ([2]; Homo sapiens, U2OS): 11.8 nM

Q: With `CCN1CCOC[C@@H]1c1ccc(Nc2ncc3ccn(-c4cc(F)c(CN5CCOCC5)c(F)c4)c3n2)cc1` [Example 508, [7-(3,5-Difluoro-4-morpholin-4-ylmethyl-phenyl)-7H-pyrrolo[2,3-d]pyrimidin-2-yl]-[4-((S)-4-ethyl-morpholin-3-yl)-phenyl]-amine] as the compound, how does the IC50 (GST-JAK2(808-1132)) read?
A: 4.1 nM

Q: And the IC50 ([2]; Homo sapiens, U2OS)?
A: 14.8 nM

Q: How did the IC50 (GST-JAK2(808-1132)) turn out when `CN1CCOC[C@@H]1c1ccc(Nc2ncc3ccn(-c4cc(F)c(CN5CCOCC5)c(F)c4)c3n2)cc1` [Example 509, [7-(3,5-Difluoro-4-morpholin-4-ylmethyl-phenyl)-7H-pyrrolo[2,3-d]pyrimidin-2-yl]-[4-((S)-4-methyl-morpholin-3-yl)-phenyl]-amine] was run?
A: < 3 nM

Q: What about the IC50 ([2]; Homo sapiens, U2OS) of the same compound?
A: 43.1 nM

Q: With `Cc1cc(Nc2ncc3ccn(-c4cc(F)c(CN5CCOCC5)c(F)c4)c3n2)cnc1N1C[C@@H](C)N[C@@H](C)C1` [Example 510, [7-(3,5-Difluoro-4-morpholin-4-ylmethyl-phenyl)-7H-pyrrolo[2,3-d]pyrimidin-2-yl]-[6-(cis-3,5-dimethyl-piperazin-1-yl)-5-methyl-pyridin-3-yl]-amine] as the compound, how does the IC50 (GST-JAK2(808-1132)) read?
A: ≤ 3 nM

Q: What about the IC50 ([2]; Homo sapiens, U2OS) of the same compound?
A: 1 nM

Q: With `Fc1cc(-n2ccc3cnc(Nc4ccc([C@H]5COCCN5)cc4)nc32)cc(F)c1CN1CCOCC1` [Example 511, [7-(3,5-Difluoro-4-morpholin-4-ylmethyl-phenyl)-7H-pyrrolo[2,3-d]pyrimidin-2-yl]-((S)-4-morpholin-3-yl-phenyl)-amine] as the compound, how does the IC50 (GST-JAK2(808-1132)) read?
A: ≤ 3 nM

Q: And the IC50 ([2]; Homo sapiens, U2OS)?
A: 3.9 nM

Q: `Cc1cc(Nc2ncc3ccn(-c4cc(F)c(CN5CCOCC5)c(F)c4)c3n2)cnc1N1CCNCC(F)(F)C1` [Example 512, [6-(6,6-Difluoro-[1,4]diazepan-1-yl)-5-methyl-pyridin-3-yl]-[7-(3,5-difluoro-4-morpholin-4-ylmethyl-phenyl)-7H-pyrrolo[2,3-d]pyrimidin-2-yl]-amine] was tested. Which IC50 (GST-JAK2(808-1132)) did it give?
A: ≤ 3 nM

Q: And the IC50 ([2]; Homo sapiens, U2OS)?
A: 14 nM

Q: What does the source list for `Fc1cc(-n2ccc3cnc(Nc4ccc(OCCN5CCOCC5)nc4)nc32)cc(F)c1CN1CCOCC1` [Example 513, [7-(3,5-Difluoro-4-morpholin-4-ylmethyl-phenyl)-7H-pyrrolo[2,3-d]pyrimidin-2-yl]-[6-(2-morpholin-4-yl-ethoxy)-pyridin-3-yl]-amine]?
A: IC50 (GST-JAK2(808-1132)): 4.6 nM; IC50 ([2]; Homo sapiens, U2OS): 116 nM

Q: What does the source list for `Fc1cc(-n2ccc3cnc(Nc4ccc(OC5CCOCC5)nc4)nc32)cc(F)c1CN1CCOCC1` [Example 515, [7-(3,5-Difluoro-4-morpholin-4-ylmethyl-phenyl)-7H-pyrrolo[2,3-d]pyrimidin-2-yl]-[6-(tetrahydro-pyran-4-yloxy)-pyridin-3-yl]-amine]?
A: IC50 (GST-JAK2(808-1132)): ≤ 3 nM; IC50 ([2]; Homo sapiens, U2OS): 54 nM

Q: Which IC50 (GST-JAK2(808-1132)) does the source give for `COCCOc1ccc(Nc2ncc3ccn(-c4cc(F)c(CN5CCOCC5)c(F)c4)c3n2)cn1` [Example 516, [7-(3,5-Difluoro-4-morpholin-4-ylmethyl-phenyl)-7H-pyrrolo[2,3-d]pyrimidin-2-yl]-[6-(2-methoxy-ethoxy)-pyridin-3-yl]-amine] here?
A: 6.4 nM

Q: And the IC50 ([2]; Homo sapiens, U2OS)?
A: 119 nM

Q: What does the source list for `Fc1cc(-n2ccc3cnc(Nc4ccc(OCC5CCOCC5)nc4)nc32)cc(F)c1CN1CCOCC1` [Example 517, [7-(3,5-Difluoro-4-morpholin-4-ylmethyl-phenyl)-7H-pyrrolo[2,3-d]pyrimidin-2-yl]-[6-(tetrahydro-pyran-4-ylmethoxy)-pyridin-3-yl]-amine]?
A: IC50 (GST-JAK2(808-1132)): ≤ 3 nM; IC50 ([2]; Homo sapiens, U2OS): 69.5 nM

Q: How did the IC50 (GST-JAK2(808-1132)) turn out when `OCCOc1ccc(Nc2ncc3ccn(-c4cc(F)c(CN5CCOCC5)c(F)c4)c3n2)cn1` [Example 518, 2-{5-[7-(3,5-Difluoro-4-morpholin-4-ylmethyl-phenyl)-7H-pyrrolo[2,3-d]pyrimidin-2-ylamino]-pyridin-2-yloxy}-ethanol] was run?
A: ≤ 3 nM

Q: And the IC50 ([2]; Homo sapiens, U2OS)?
A: 39.5 nM

Q: Which IC50 (GST-JAK2(808-1132)) does the source give for `Fc1cc(-n2ccc3cnc(Nc4ccc([C@H]5COCCN5CCOCc5ccccc5)cc4)nc32)cc(F)c1CN1CCOCC1` [Example 520, {4-[(S)-4-(2-Benzyloxy-ethyl)-morpholin-3-yl]-phenyl}-[7-(3,5-difluoro-4-morpholin-4-ylmethyl-phenyl)-7H-pyrrolo[2,3-d]pyrimidin-2-yl]-amine] here?
A: 57 nM

Q: What about the IC50 ([2]; Homo sapiens, U2OS) of the same compound?
A: 543 nM

Q: How did the IC50 (cKit) turn out when `OCCN1CCOC[C@@H]1c1ccc(Nc2ncc3ccn(-c4cc(F)c(CN5CCOCC5)c(F)c4)c3n2)cc1` [Example 521, 2-((S)-3-{4-[7-(3,5-difluoro-4-morpholin-4-ylmethyl-phenyl)-7H-pyrrolo[2,3-d]pyrimidin-2-ylamino]-phenyl}-morpholin-4-yl)-ethanol] was run?
A: 2900 nM

Q: What about the IC50 (ALK) of the same compound?
A: > 10000 nM

Q: What about the IC50 (cMet) of the same compound?
A: 3500 nM

Q: And the IC50 (PDGFRalpha)?
A: 2800 nM

Q: What about the IC50 (GST-JAK2(808-1132)) of the same compound?
A: ≤ 3 nM

Q: What about the IC50 (GST-JAK2(808-1132); Table 3) of the same compound?
A: < 3 nM

Q: “[6-Azetidin-3-yloxy)-pyridin-3-yl]-[7-(3,5-difluoro-4-morpholin-4-ylmethyl-phenyl)-7H-pyrrolo[2,3-d]pyrimidin-2-yl]-amine [Example 514]” was tested. Which IC50 (GST-JAK2(808-1132)) did it give?
A: 25 nM

Q: What about the IC50 [2] of the same compound?
A: 1320 nM
